From patent publication US7214470B2, “Fluorine-containing ethylenic monomer having hydroxyl group or fluoroalkyl carbonyl group and fluorine-containing polymer prepared by polymerization of same” (priority 2001, dated 2007)

Experiment: Measurement of pKa by titration with NaOH solution in water/acetone
Type: physicochemical
Settings: for Measured pKa Exp. Ex. 2: monomer, titration with NaOH solution in water/acetone, room temperature
Description: In a solution of water/acetone of 10/15 ml was put 0.7865 g of CH2═CHCH2C(CF3)2OH, followed by stirring at room temperature. After it was confirmed that the solution became homogeneous, titration was carried out with a 0.2 mol/liter NaOH solution. A titration curve was obtained by adding a NaOH solution dropwise in increments of 0.15 ml and recording a pH value at every addition. An equivalence point was determined by an inflection point (maximum differential value of titration curve=dpH/dml) of the titration curve. In this case, the equivalence point was 14.5 ml. […] From a titration curve of water/acetone solution and aqueous solution which had been measured previously as a blank solution, a difference in a pH value derived from an electric potential difference between the solutions at titration of 7.25 ml was 1.29.
In case of titration of 1.0865 g of CH2═CHCH2C(CF3)2OH by the same procedures as above, an equivalence point was 20.15 ml and a half of equivalence point was 10.08 ml. A pH value at a half of the equivalence point was 10.78.
When the same procedures as above were carried out except that about 0.05 mol/liter NaOH solution was used as a titration solution, an equivalence point of 0.115 g of CH2═CHCH2C(CF3)2OH was 8.00 ml and a half of equivalence point was 4.00 ml. A pH value at this time was 10.92.
From those experiments carried out three times, a pKa value of CH2═CHCH2C(CF3)2OH was determined as 9.6.
With respect to the various fluorine-containing ethylenic monomers having OH group shown in Table 1, a pKa value was measured by the same procedures as above.

Compound | pKa | Measured pKa Exp. Ex. 2 | pKa value (single titration) (0.115 g, about 0.05 mol/liter NaOH) | pKa value (single titration) (0.7865 g, 0.2 mol/liter NaOH, water/acetone 10/15 ml) | pKa value (single titration) (1.0865 g, 0.2 mol/liter NaOH)
C=C(F)C(O)(C(F)(F)F)C(F)(F)F [Ex. 4, 1,1-bistrifluoromethyl-2-fluoro-2-propene-1-ol] | 8 | – | – | – | –
OC(C(F)=C(F)F)(C(F)(F)F)C(F)(F)F [Prep. Ex. 1, 1,1-bistrifluoromethyl-2,3,3-trifluoro-2-propene-1-ol] | 7.1 | – | – | – | –
C=C(F)C(F)(F)OC(F)(C(F)(F)F)C(F)(F)OC(F)(CO)C(F)(F)F (stereo not shown) [perfluoro-(1,1,1,9,9-tetrahydro-2,5-bistrifluoromethyl-3,6-dioxanonenol)] | – | 12.6 | – | – | –
CH2═CHCH2C(CF3)2OH | – | 9.6 | 9.54 | 9.69 | 9.64
